According to patent US20130022629A1, “Modulators of Immunoinhibitory Receptor PD-1, and Methods of Use Thereof” (priority 2010, published 2013):
“Also recorded” adds a separate entry of the source.

Legend:
PD-1 [1] = biological target: T1, PD-1 (Mus musculus, UniProt Q02242); test: Primary screen: IFN-γ production by PD-1^C T cells with plate-bound anti-CD3 plus PD-L2Ig or control Ig; format: cell-based; conditions: compared with negative control wells on the plate (FIG. 2)
T1 construct: expressed in transfected cells; host or cells: CD4 T cells purified from spleens of PD-1^C transgenic mice (transgene-driven constitutive PD-1)
T1 sequence (Q02242 25-288): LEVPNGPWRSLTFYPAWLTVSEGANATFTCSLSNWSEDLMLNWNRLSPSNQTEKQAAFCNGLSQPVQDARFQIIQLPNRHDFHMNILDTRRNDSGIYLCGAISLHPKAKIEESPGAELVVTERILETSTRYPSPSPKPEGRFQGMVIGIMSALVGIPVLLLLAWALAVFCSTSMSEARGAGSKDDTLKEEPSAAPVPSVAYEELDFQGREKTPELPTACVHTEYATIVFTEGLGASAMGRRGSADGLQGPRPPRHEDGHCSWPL
Description: In certain embodiments, PD-1^C T cells are cultured with a proliferative stimulus (anti-CD3) plus either PD-L2-Ig or a negative control Ig fusion protein. PD-1^C T cells proliferate less and produce lower amounts of cytokines when cultured with PD-L2-Ig as compared to the negative control Ig fusion protein because PD-1-ligands deliver an inhibitory signal through PD-1. Compounds of interest will modulate this inhibitory interaction in wild type and PD-1^C T cells, but not in PD-1^−/− cells. Thus, compounds which are antagonists will block PD-1 inhibitory function and lead to increased T cell responses by wild type and PD-1^C T cells, but will not affect PD-1^−/− T cells. Conversely, compounds which are agonists will deliver an inhibitory signal, and reduce T cell responses by wild type and PD-1^C T cells, but not PD-1^−/− T cells.
Because it is believed that PD-1 can inhibit cytokine (IFN-γ) production to a greater extent than T cell proliferation in a number of situations (36, 44), in certain embodiments IFN-γ production was chosen as the readout, using a bead-based fluorescent ELISA assay. These beads have a broad dynamic range (about 1 pg/mL to about 5 ng/mL), robust detection of cytokines from complex solutions (including culture media), minimal time requirement (about 3 hours from start to finish), and homogeneous format (no washing required). […]

PD-1^−/− T cells = test: Specificity control: responses of PD-1^−/− (KO) T cells to compound; format: cell-based, mouse; conditions: PD-1^−/− T cells over the range of compound concentrations (FIG. 3)
Description: In vitro assays to test for compounds that interfere with the PD-1 function have been developed. These assays utilize unique mouse strains to specifically identify PD-1-specific effects. For example, a transgenic mouse that constitutively expresses PD-1 on T cells (PD-1^C) has been developed (43). It has recently been disclosed that PD-1^C T cells are very susceptible to signaling through PD-1, as measured by a decrease in T cell proliferation and cytokine production. These PD-1^C T cells can be used to assess the functional effects of small molecules. A PD-1 deficient mouse (PD-1^−/−) has also been developed (44), and T cells from such mice will serve as useful controls for in vitro as well as in vivo studies. In certain embodiments, PD-1^C T cells are cultured with a proliferative stimulus (anti-CD3) plus either PD-L2-Ig or a negative control Ig fusion protein. […] The specificity of the effects of sulfamonomethoxine and sulfamethizole were assessed by comparing responses of wild type, PD-1^c, and PD-1^−/− T cells. The effects of sulfamonomethoxine and sulfamethizole were evaluated over a range of compound concentrations (dilution series from 16 nM to 80 μM) and analyzed their effects on T cell proliferation and cytokine production. […]

PD-1 [2] = biological target: T1, PD-1; test: Validation (secondary screen): rescue of PD-1 mediated inhibition of IFN-γ production in PD-1^C (Tg) T cells; format: cell-based; conditions: PD-L2Ig versus control Ig (FIG. 3)
Description: In vitro assays to test for compounds that interfere with the PD-1 function have been developed. These assays utilize unique mouse strains to specifically identify PD-1-specific effects. For example, a transgenic mouse that constitutively expresses PD-1 on T cells (PD-1^C) has been developed (43). It has recently been disclosed that PD-1^C T cells are very susceptible to signaling through PD-1, as measured by a decrease in T cell proliferation and cytokine production. These PD-1^C T cells can be used to assess the functional effects of small molecules. A PD-1 deficient mouse (PD-1^−/−) has also been developed (44), and T cells from such mice will serve as useful controls for in vitro as well as in vivo studies.
In certain embodiments, PD-1^C T cells are cultured with a proliferative stimulus (anti-CD3) plus either PD-L2-Ig or a negative control Ig fusion protein. […]
The specificity of the effects of sulfamonomethoxine and sulfamethizole were assessed by comparing responses of wild type, PD-1^c, and PD-1^−/− T cells. The effects of sulfamonomethoxine and sulfamethizole were evaluated over a range of compound concentrations (dilution series from 16 nM to 80 μM) and analyzed their effects on T cell proliferation and cytokine production. […]

Cc1nnc(NS(=O)(=O)c2ccc(N)cc2)s1 [sulfamethizole]
rescue of IFN-γ production in the primary screen (PD-1 [1]): rescue of IFN-γ production above the negative control wells | effect on PD-1 KO T cells (PD-1^−/− T cells): no effect | specificity: rescue/block of PD-1 mediated inhibition in PD-1 Tg cells (PD-1 [2]): block of PD-1 mediated inhibition in PD-1 Tg cells only when PD-L2 was present; also recorded: rescue of PD-1 mediated inhibition in PD-1 Tg cells only when PD-L2 was present

COc1cc(NS(=O)(=O)c2ccc(N)cc2)ncn1 [sulfamonomethoxine]
rescue of IFN-γ production in the primary screen (PD-1 [1]): rescue of IFN-γ production above the negative control wells | effect on PD-1 KO T cells (PD-1^−/− T cells): no effect | specificity: rescue/block of PD-1 mediated inhibition in PD-1 Tg cells (PD-1 [2]): block of PD-1 mediated inhibition in PD-1 Tg cells only when PD-L2 was present; also recorded: rescue of PD-1 mediated inhibition in PD-1 Tg cells only when PD-L2 was present
